The values that follow come from patent publication US9603364B2 (Dow AgroSciences LLC, priority 2013, dated 2017).

Assay in all cases: General post-emergent herbicidal activity, foliar application
Holding throughout (type): in vivo

The test system of assay [1] is Amaranthus retroflexus L. (pigweed, redroot). The settings on record: for pest or weed control at 280 g/ha: 280 g ai/ha; for pest or weed control at 140 g/ha: 140 g ai/ha; for GR80 Value AMARE: calculated by probit analysis, dose for 80% visual injury, may be extrapolated; for pest or weed control at 70 g/ha: 70 g ai/ha. In short, it runs like this:
(§1)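 Compounds in acetone/DMSO (97:3) were diluted into aqueous spray containing isopropyl alcohol, Atplus 411F crop oil and Triton X-155, then applied post-emergence to foliage at a top rate plus 1/2× to 1/16× serial dilutions. Injury was scored visually (0–100%) after 14 days in a sub-irrigated greenhouse versus untreated plants. GR20/GR50/GR80 were derived by probit analysis, with some GR80 values extrapolated from curve slope.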

Assay [2] has as its system Chenopodium album L. (lambsquarters, common). Particulars: for pest or weed control at 280 g/ha: 280 g ai/ha; for pest or weed control at 140 g/ha: 140 g ai/ha; for GR80 Value CHEAL: calculated by probit analysis, dose for 80% visual injury, may be extrapolated; for pest or weed control at 70 g/ha: 70 g ai/ha. In short, it runs like this:
as §1

Assay [3] deals with Echinochloa crus-galli (L.) Beauv. (barnyardgrass). Particulars: for pest or weed control at 280 g/ha: 280 g ai/ha; for pest or weed control at 140 g/ha: 140 g ai/ha; for GR80 Value ECHCG: calculated by probit analysis, dose for 80% visual injury, may be extrapolated; for pest or weed control at 70 g/ha: 70 g ai/ha. The method in brief: as §1
The subject of assay [4] is Euphorbia heterophylla L. (poinsettia, wild). The settings on record: for pest or weed control at 280 g/ha: 280 g ai/ha; for pest or weed control at 140 g/ha: 140 g ai/ha; for GR80 Value EPHHL: calculated by probit analysis, dose for 80% visual injury, may be extrapolated; for pest or weed control at 70 g/ha: 70 g ai/ha. The method in brief:
as §1

Assay [5] relates to Helianthus annuus L. (sunflower, common). The settings on record: for pest or weed control at 280 g/ha: 280 g ai/ha; for pest or weed control at 140 g/ha: 140 g ai/ha; for GR80 Value HELAN: calculated by probit analysis, dose for 80% visual injury, may be extrapolated; for pest or weed control at 70 g/ha: 70 g ai/ha. The method in brief:
as §1

Assay [6] concerns Viola tricolor L. (pansy). The settings on record: for pest or weed control at 280 g/ha: 280 g ai/ha; for pest or weed control at 140 g/ha: 140 g ai/ha; for GR80 Value VIOTR: calculated by probit analysis, dose for 80% visual injury, may be extrapolated; for pest or weed control at 70 g/ha: 70 g ai/ha. The method in brief: as §1
Assay [7] has as its system Oryza sativa L. (rice). The settings on record: Oryza sativa, 336 h, scored after 14 days, read-out: % Visual Growth Reduction ORYSA; for plant injury at 280 g/ha: 280 g ai/ha; for plant injury at 140 g/ha: 140 g ai/ha; for plant injury at 70 g/ha: 70 g ai/ha. In short, it runs like this: (§2)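 Injury rated visually 14 days after treatment on a 0 (none) to 100% (complete kill) scale against untreated plants; greenhouse-grown, sub-irrigated to avoid wash-off. Foliar spray in aqueous acetone/DMSO with isopropanol, crop oil concentrate and Triton X-155, at a highest rate and 2-fold serial dilutions down to 1/16×.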

In assay [8] the test system is Zea mays L. (corn). Particulars: 336 h, scored after 14 days, read-out: % Visual Growth Reduction ZEAMX; for plant injury at 280 g/ha: 280 g ai/ha; for plant injury at 140 g/ha: 140 g ai/ha; for plant injury at 70 g/ha: 70 g ai/ha. The method in brief: as §2
Where [9] appears, read: Amaranthus retroflexus, 336 h, foliar post-emergent, scored after 14 days, read-out: % Visual Growth Reduction AMARE.
The mark [10] stands for this setting: Chenopodium album, 336 h, foliar post-emergent, scored after 14 days, read-out: % Visual Growth Reduction CHEAL.
The mark [11] stands for this setting: Echinochloa crus-galli, 336 h, foliar post-emergent, scored after 14 days, read-out: % Visual Growth Reduction ECHCG.
Where [12] appears, read: Euphorbia heterophylla, 336 h, foliar post-emergent, scored after 14 days, read-out: % Visual Growth Reduction EPHHL.
[13] abbreviates: Helianthus annuus, 336 h, foliar post-emergent, scored after 14 days, read-out: % Visual Growth Reduction HELAN.
The mark [14] stands for this setting: Viola tricolor, 336 h, foliar post-emergent, scored after 14 days, read-out: % Visual Growth Reduction VIOTR.

With `COC(=O)c1nc(CCl)cc(N)c1Cl` [Compound F35, methyl 4-amino-3-chloro-6-(chloromethyl)picolinate], the pest or weed control at 280 g/ha in assay [1] (setting [9]), in assay [2] (setting [10]), in assay [3] (setting [11]), in assay [4] (setting [12]), in assay [5] (setting [13]) and in assay [6] (setting [14]) was 0% in each case. The plant injury at 280 g/ha in assay [7] and in assay [8] was 0% throughout.
For the molecule `COC(=O)c1nc(C(C)(F)CF)cc(N)c1Cl` (centres unmarked) [Compound F11, Methyl 4-amino-3-chloro-6-(1,2-difluoropropan-2-yl)picolinate], the pest or weed control at 140 g/ha came out at 30% in assay [1] (setting [9]); 0% in assay [2] (setting [10]); 0% in assay [3] (setting [11]); 10% in assay [4] (setting [12]); 70% in assay [5] (setting [13]); 0% in assay [6] (setting [14]). Further, the plant injury at 140 g/ha in assay [7] and in assay [8] was 0% each time.
Consider `COC(=O)c1nc(CCF)cc(N)c1Cl` [Compound F31, methyl 4-amino-3-chloro-6-(2-fluoroethyl)picolinate], for which the pest or weed control at 180 g/ha in assay [1] (Amaranthus retroflexus, 336 h, 180 g ai/ha, foliar post-emergent, scored after 14 days, read-out: % Visual Growth Reduction AMARE) was found to be 15%; in assay [2] (Chenopodium album, 336 h, 180 g ai/ha, foliar post-emergent, scored after 14 days, read-out: % Visual Growth Reduction CHEAL) it was 100%; in assay [3] (Echinochloa crus-galli, 336 h, 180 g ai/ha, foliar post-emergent, scored after 14 days, read-out: % Visual Growth Reduction ECHCG), 0%; in assay [4] (Euphorbia heterophylla, 336 h, 180 g ai/ha, foliar post-emergent, scored after 14 days, read-out: % Visual Growth Reduction EPHHL), 45%; in assay [5] (Helianthus annuus, 336 h, 180 g ai/ha, foliar post-emergent, scored after 14 days, read-out: % Visual Growth Reduction HELAN) it was 90%; in assay [6] (Viola tricolor, 336 h, 180 g ai/ha, foliar post-emergent, scored after 14 days, read-out: % Visual Growth Reduction VIOTR), 100%. In addition, the “GR80 Value AMARE” value in assay [1] is listed as under 17.5 g ai/ha. Also, the “GR80 Value CHEAL” value in assay [2] is 6.93 g ai/ha. Besides, in assay [3], the “GR80 Value ECHCG” value is over 180 g ai/ha. In addition, the “GR80 Value EPHHL” value in assay [4] is given as under 17.5 g ai/ha. Further, the “GR80 Value HELAN” value in assay [5] was 42.4 g ai/ha. Further, in assay [6], the “GR80 Value VIOTR” value is recorded as 74.4 g ai/ha. The plant injury at 180 g/ha in assay [7] (180 g ai/ha) and in assay [8] (180 g ai/ha) was 0% each time.
Consider `COC(=O)c1nc(C(F)F)c(F)c(N)c1Cl` [Compound F3, methyl 4-amino-3-chloro-6-(difluoromethyl)-5-fluoropicolinate], for which the pest or weed control at 70 g/ha in assay [1] (setting [9]) is 5%; in assay [2] (setting [10]), 100%; in assay [3] (setting [11]) it was 0%; in assay [4] (setting [12]) it was 50%; in assay [5] (setting [13]), 90%; in assay [6] (setting [14]), 0%. Also, the pest or weed control at 140 g/ha in assay [1] (setting [9]) was 50%; in assay [2] (setting [10]) it was 100%; in assay [3] (setting [11]), 0%; in assay [4] (setting [12]), 75%; in assay [5] (setting [13]), 90%; in assay [6] (setting [14]), 5%. Further, the pest or weed control at 280 g/ha was determined as 90% in assay [1] (setting [9]); 100% in assay [2] (setting [10]); 10% in assay [3] (setting [11]); 85% in assay [4] (setting [12]); 90% in assay [5] (setting [13]); 10% in assay [6] (setting [14]). Moreover, the “GR80 Value AMARE” value in assay [1] is given as 112 g ai/ha. For the same molecule, the “GR80 Value CHEAL” value in assay [2] is under 17.5 g ai/ha. The “GR80 Value ECHCG” value in assay [3] was over 280 g ai/ha. Besides, the “GR80 Value EPHHL” value in assay [4] was 193 g ai/ha. Moreover, in assay [5], the “GR80 Value HELAN” value is on record as 32.5 g ai/ha. Besides, in assay [6], the “GR80 Value VIOTR” value is listed as over 280 g ai/ha. Further, the plant injury at 70 g/ha in assay [7] and in assay [8] was 0% in each case. For the same molecule, the plant injury at 140 g/ha in assay [7] and in assay [8] was 0% each time. The figures for the plant injury at 280 g/ha in assay [7] and in assay [8] were 0% and 10%, respectively.
In the case of `COC(=O)c1nc(C(C)F)cc(N)c1Cl` (centres unmarked) [Compound F19, Methyl 4-amino-3-chloro-6-(1-fluoroethyl)picolinate], the pest or weed control at 35 g/ha in assay [1] (Amaranthus retroflexus, 336 h, 35 g ai/ha, foliar post-emergent, scored after 14 days, read-out: % Visual Growth Reduction AMARE) worked out at 100%; in assay [2] (Chenopodium album, 336 h, 35 g ai/ha, foliar post-emergent, scored after 14 days, read-out: % Visual Growth Reduction CHEAL), 100%; in assay [3] (Echinochloa crus-galli, 336 h, 35 g ai/ha, foliar post-emergent, scored after 14 days, read-out: % Visual Growth Reduction ECHCG) it was 0%; in assay [4] (Euphorbia heterophylla, 336 h, 35 g ai/ha, foliar post-emergent, scored after 14 days, read-out: % Visual Growth Reduction EPHHL), 10%; in assay [5] (Helianthus annuus, 336 h, 35 g ai/ha, foliar post-emergent, scored after 14 days, read-out: % Visual Growth Reduction HELAN), 10%; in assay [6] (Viola tricolor, 336 h, 35 g ai/ha, foliar post-emergent, scored after 14 days, read-out: % Visual Growth Reduction VIOTR), 100%. The pest or weed control at 70 g/ha in assay [1] (setting [9]) worked out at 100%; in assay [2] (setting [10]), 100%; in assay [3] (setting [11]) it was 0%; in assay [4] (setting [12]), 90%; in assay [5] (setting [13]), 20%; in assay [6] (setting [14]), 100%. Further, the pest or weed control at 140 g/ha came to 100% in assay [1] (setting [9]); 100% in assay [2] (setting [10]); 20% in assay [3] (setting [11]); 100% in assay [4] (setting [12]); 50% in assay [5] (setting [13]); 100% in assay [6] (setting [14]). Further, the pest or weed control at 280 g/ha in assay [1] (setting [9]) worked out at 100%; in assay [2] (setting [10]), 100%; in assay [3] (setting [11]), 25%; in assay [4] (setting [12]), 100%; in assay [5] (setting [13]), 80%; in assay [6] (setting [14]), 100%. The “GR80 Value AMARE” value in assay [1] is 19.1 g ai/ha. Also, the “GR80 Value CHEAL” value in assay [2] was under 17.5 g ai/ha. Moreover, the “GR80 Value ECHCG” value in assay [3] is over 280 g ai/ha. The “GR80 Value EPHHL” value in assay [4] is 72.3 g ai/ha. Further, in assay [5], the “GR80 Value HELAN” value is on record as 341 g ai/ha. The “GR80 Value VIOTR” value in assay [6] is on record as 34.3 g ai/ha. Further, the plant injury at 35 g/ha in assay [7] (35 g ai/ha) and in assay [8] (35 g ai/ha) was 0% each time. The plant injury at 70 g/ha in assay [7] and in assay [8] was 0% each time. The plant injury at 140 g/ha in assay [7] amounted to 0%; in assay [8] it was 90%. Besides, the plant injury at 280 g/ha in assay [7] turned out to be 0%; in assay [8], 100%.
